18 compounds from patent US20250270222A1, “AP2 ASSOCIATED KINASE 1 INHIBITORS AND USES THEREOF” (Satellos Bioscience Inc., priority 2023, published 2025) can be followed below.

Holding throughout (assay type): biochemical
The target in assay [1] is GAK (amino acids Q25-N335) (Homo sapiens (Human), UniProt O14976). The assay is described as follows: GAK pSENs assay.
The target of assay [2] is AAK1 (amino acids T27-A365) (Homo sapiens (Human), UniProt Q2M2I8). The assay is described as follows: AAK1 pSENs assay. Conditions: ratio of AAK1 pSENs activity to GAK pSENs activity. The method in brief:
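Untagged, biotinylated E. coli-expressed AAK1 at 20 nM preincubated with compound 15 min at 25° C in HEPES pH 7.5 buffer with 10 mM MgCl2 and 1 mM DTT. Reaction started with AQT0759 and ATP, added as 30 uM and 70 uM solutions in equal volume.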

Assay [3] deals with BIKE (amino acids S38-E345) (K320A, K321A) (Homo sapiens (Human), UniProt Q9NSY1, K320A/K321A). Nature of the assay: BIKE pSENs assay. The protocol:
The recombinant proteins were independently expressed in Esherichia coli BL21(DE3) cells cultured in Luria-Bertani (LB) medium until OD600 reached 0.6-0.8, then cooled to 15° C., and supplemented with 0.5 mM isopropyl 1-thio-D-galactopyranoside (IPTG) induce protein expression 16 h. Cells were harvested and resuspended in lysis buffer (50 mM HEPES pH 7.5, 500 mM NaCl, 5 mM imidazole, 5% glycerol, 0.5 mM Tris (2-carboxyethyl) phosphine (TCEP), cOmplete Protease Inhibitor Tablet (Roche)) and lysed by microfluidics high pressure homogenizer (UH-06, Union-Biotech). Proteins were purified using Ni-Affinity chromatography (His FF column, Bestchrom) and eluted stepwise in binding buffer with 20-300 mM imidazole. Removal of the hexahistidine tag was performed at 4° C. overnight using recombinant TEV protease and reacted with BirA to obtain the corresponding biotinylated-AAK1. BIKE or GAK proteins. Further separated in the reverse Strep column (Strep-Tactin® XT, IBA). The Biotin elution sample was collected containing untagged biotinylated protein was then purified by Ion-exchange chromatography (Mono Q 10/100 GL, Cytiva) and Size-exclusion chromatography (HiLoad 16/600 Superdex 200 pg, Cytiva). The pure protein was stored in a storage buffer 50 mM HEPES (pH 7.5), 300 mM NaCl, 5% glycerol at −80° C. Protein were characterized by SDS-PAGE. LC-MS and aSEC.
BIKE protein was dissolved at 20 nM in 1× enzyme solution (50 mM HEPES pH7.5, 10 mM MgCl2, 1 mM DTT, 1% glycerol, 0.5 mM EGTA, 0.01% Briji35, 0.02% BSA) and 12.5 ul was incubated with 250 nl DMSO or 250 nl compound in DMSO at 25° C. for 15 min. The reaction was started by addition of 12.5 ul of 30 uM AQT0759 (Assayquant, CSKS-AQT0759B) and 40 uM ATP which were diluted in 1× substrate dilution buffer (50 mM HEPES pH7.5, 10 mM MgCl2. 1 mM DTT, 1% glycerol, 0.5 mM EGTA, 0.01% Briji35).

Each structure is given as a SMILES string.

Chain of AAK1 (amino acids T27-A365) (Q2M2I8 27-365): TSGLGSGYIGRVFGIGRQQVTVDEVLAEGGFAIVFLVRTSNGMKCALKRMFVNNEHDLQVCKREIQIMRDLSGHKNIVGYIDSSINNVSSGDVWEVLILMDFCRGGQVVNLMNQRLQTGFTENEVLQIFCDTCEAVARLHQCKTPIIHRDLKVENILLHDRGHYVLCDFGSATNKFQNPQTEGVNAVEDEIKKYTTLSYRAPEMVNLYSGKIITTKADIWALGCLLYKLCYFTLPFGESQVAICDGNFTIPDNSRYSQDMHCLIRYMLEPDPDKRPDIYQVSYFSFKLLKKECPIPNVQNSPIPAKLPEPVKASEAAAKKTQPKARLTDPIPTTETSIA
Chain of BIKE (amino acids S38-E345) (K320A, K321A) (Q9NSY1 38-345 K320A/K321A): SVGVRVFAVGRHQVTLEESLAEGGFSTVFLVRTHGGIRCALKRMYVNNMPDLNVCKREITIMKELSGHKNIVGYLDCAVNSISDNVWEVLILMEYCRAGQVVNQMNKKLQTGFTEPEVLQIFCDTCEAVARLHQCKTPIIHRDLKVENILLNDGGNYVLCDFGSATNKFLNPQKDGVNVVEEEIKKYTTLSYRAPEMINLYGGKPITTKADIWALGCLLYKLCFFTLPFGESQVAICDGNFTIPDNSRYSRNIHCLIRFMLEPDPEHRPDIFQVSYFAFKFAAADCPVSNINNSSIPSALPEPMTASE
Chain of GAK (amino acids Q25-N335) (O14976 25-335): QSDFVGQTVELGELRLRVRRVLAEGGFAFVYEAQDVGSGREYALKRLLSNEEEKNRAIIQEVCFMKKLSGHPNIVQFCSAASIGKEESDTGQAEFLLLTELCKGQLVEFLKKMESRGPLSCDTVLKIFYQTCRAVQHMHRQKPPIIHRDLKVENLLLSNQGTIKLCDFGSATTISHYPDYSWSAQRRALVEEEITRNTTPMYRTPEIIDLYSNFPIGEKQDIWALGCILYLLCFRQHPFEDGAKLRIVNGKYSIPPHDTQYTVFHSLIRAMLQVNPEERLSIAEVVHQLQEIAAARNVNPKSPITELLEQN

Take `COC(=O)N1CC(Oc2ncccc2-c2cnn3ccc(N4CCN(C(=O)O[C@@H]5CC(=O)N(C6COC6)C5)CC4)nc23)C1` [Compound I-85, [(3R)-1-(oxetan-3-yl)-5-oxo-pyrrolidin-3-yl]-4-[3-[2-(1-methoxycarbonylazetidin-3-yl)oxy-3-pyridyl]pyrazolo[1,5-a]pyrimidin-5-yl]piperazine-1-carboxylate]: the IC50 in assay [1] and in assay [3] was above 1500 nM in each case. Also, the “AAK1:GAK pSENs Selectivity” value in assay [2] is recorded as “C (C: 0.076-0.15)”.

For `O=C(O[C@@H]1CC(=O)N(C2CCNCC2)C1)N1CCN(c2ccn3ncc(-c4cccnc4OC4CC4)c3n2)CC1` [Compound I-33, (R)-5-Oxo-1-(piperidin-4-yl)pyrrolidin-3-yl 4-(3-(2-cyclopropoxypyridin-3-yl)pyrazolo[1,5-a]pyrimidin-5-yl)piperazine-1-carboxylate], the IC50 in assay [1] and in assay [3] was above 1500 nM throughout. In addition, the “AAK1:GAK pSENs Selectivity” value in assay [2] is “D (D: 0.16-1.00)”.

Regarding `CN(C)CCN1CC[C@@](C)(OC(=O)N2CCN(c3ccn4ncc(-c5cccnc5OC5CC5)c4n3)CC2)C1` [Compound I-53, (R)-1-(2-(dimethylamino)ethyl)-3-(methylpyrrolidin-3-yl)-4-(3-(2-cyclopropoxypyridin-3-yl)pyrazolo[1,5-a]pyrimidin-5-yl)piperazine-1-carboxylate], the IC50 was above 1500 nM in assay [1] and 501 to 1500 nM in assay [3]. In addition, in assay [2], the “AAK1:GAK pSENs Selectivity” value is “A (A: ≤0.015)”.

`NC(=O)[C@@H]1CN(c2ccn3ncc(-c4cccnc4OC4CC4)c3n2)CCN1C(=O)O[C@@H]1CNC(=O)C1` [Compound I-41-6, (S)-5-Oxopyrrolidin-3-yl-(S)-2-carbamoyl-4-(3-(2-cyclopropoxypyridin-3-yl)pyrazolo[1,5-a]pyrimidin-5-yl)piperazine-1-carboxylate]: the IC50 in assay [1] and in assay [3] was above 1500 nM throughout. The “AAK1:GAK pSENs Selectivity” value in assay [2] is given as “B (B: 0.016-0.075)”.

As to `COc1cn2ncc(-c3cccnc3OC3CC3)c2nc1N1CCN(C(=O)O[C@H]2CC(=O)N(C)C2)CC1` [Compound I-110-9, [(3S)-1-methyl-5-oxo-pyrrolidin-3-yl]-4-[3-[2-(cyclopropoxy)-3-pyridyl]-6-methoxy-pyrazolo[1,5-a]pyrimidin-5-yl]piperazine-1-carboxylate], the IC50 in assay [1] and in assay [3] was above 1500 nM throughout. Further, the “AAK1:GAK pSENs Selectivity” value in assay [2] is “E (E: >1.00)”.

`O=C1NCC[C@@H]1OC(=O)N1CCN(c2ccn3ncc(-c4cccnc4OC4CC4)c3n2)CC1` [Compound I-24, [(3S)-2-Oxopyrrolidin-3-yl]-4-[3-[2-(cyclopropoxy)-3-pyridyl]pyrazolo[1,5-a]pyrimidin-5-yl]piperazine-1-carboxylate]: the IC50 in assay [1] and in assay [3] was above 1500 nM in each case. The “AAK1:GAK pSENs Selectivity” value in assay [2] is recorded as “B (B: 0.016-0.075)”.

As for `O=C1NCC[C@H]1OC(=O)N1CCN(c2ccn3ncc(-c4cccnc4OC4CC4)c3n2)CC1` [Compound I-23, [(3R)-2-oxopyrrolidin-3-yl]-4-[3-[2-(cyclopropoxy)-3-pyridyl]pyrazolo[1,5-a]pyrimidin-5-yl]piperazine-1-carboxylate], the IC50 in assay [1] and in assay [3] was above 1500 nM throughout. Further, the “AAK1:GAK pSENs Selectivity” value in assay [2] was “B (B: 0.016-0.075)”.

`Cc1nn2ccc(N3CCN(C(=O)O[C@H]4CC(=O)N(C)C4)CC3)nc2c1-c1cccnc1OC1CC1` [Compound I-108, [(3S)-1-methyl-5-oxo-pyrrolidin-3-yl]-4-[3-[2-(cyclopropoxy)-3-pyridyl]-2-methyl-pyrazolo[1,5-a]pyrimidin-5-yl]piperazine-1-carboxylate]: the half-inhibitory concentration (IC50) in assay [1] and in assay [3] was above 1500 nM in each case. Moreover, the “AAK1:GAK pSENs Selectivity” value in assay [2] was “E (E: >1.00)”.

With `CN1C[C@@H](OC(=O)N2CCN(c3nc4c(-c5cccnc5OC5CC5)cnn4cc3O)CC2)CC1=O` [Compound I-110, [(3S)-1-methyl-5-oxo-pyrrolidin-3-yl]-4-[3-[2-(cyclopropoxy)-3-pyridyl]-6-hydroxy-pyrazolo[1,5-a]pyrimidin-5-yl]piperazine-1-carboxylate], the IC50 in assay [1] and in assay [3] was above 1500 nM in each case. Besides, the “AAK1:GAK pSENs Selectivity” value in assay [2] is given as “E (E: >1.00)”.

Regarding `O=C(O[C@H]1CO[C@H]2OCC[C@H]21)N1CCN(c2ccn3ncc(-c4ccncn4)c3n2)CC1` [Compound I-67], the IC50 in assay [1] and in assay [3] was above 1500 nM in each case. Further, the “AAK1:GAK pSENs Selectivity” value in assay [2] is reported as “C (C: 0.076-0.15)”.

Take `COC(=O)[C@@H]1CN(c2ccn3ncc(-c4cccnc4OC4CC4)c3n2)CCN1C(=O)O[C@@H]1CNC(=O)C1` [Compound I-41-5, 2-Methyl 1-((S)-5-oxopyrrolidin-3-yl) (S)-4-(3-(2-cyclopropoxypyridin-3-yl)pyrazolo[1,5-a]pyrimidin-5-yl)piperazine-1,2-dicarboxylate]: the IC50 in assay [1] and in assay [3] was above 1500 nM in each case. Further, the “AAK1:GAK pSENs Selectivity” value in assay [2] is listed as “C (C: 0.076-0.15)”.

In the case of `O=C(O[C@H]1CO[C@H]2OCC[C@H]21)N1CCN(c2ccn3ncc(-c4ccccc4OC4CC4)c3n2)CC1` [Compound I-68, [(3aS,4R,6aR)-2,3,3a, 4,5,6a-hexahydrofuro[2,3-b]furan-4-yl]4-[3-[2-(cyclopropoxy)phenyl]pyrazolo[1,5-a]pyrimidin-5-yl]piperazine-1-carboxylate], the IC50 in assay [1] and in assay [3] was above 1500 nM throughout. In addition, the “AAK1:GAK pSENs Selectivity” value in assay [2] is recorded as “A (A: ≤0.015)”.

On to `CC(C)Nc1ncccc1-c1cnn2ccc(N3CCN(C(=O)O[C@@H]4CNC(=O)C4)CC3)nc12` [Compound I-47, [(3S)-5-oxopyrrolidin-3-yl]4-[3-[2-(isopropylamino)-3-pyridyl]pyrazolo[1,5-a]pyrimidin-5-yl]piperazine-1-carboxylate], for which the 50% inhibitory concentration (IC50) in assay [1] and in assay [3] was above 1500 nM throughout. Further, the “AAK1:GAK pSENs Selectivity” value in assay [2] is “E (E: >1.00)”.

`O=C1C[C@H](OC(=O)N2CCN(c3ccn4ncc(-c5cccnc5OC5CC5)c4n3)C[C@H]2C(=O)O)CN1` [Compound I-41-4C, (S)-4-(3-(2-Cyclopropoxypyridin-3-yl)pyrazolo[1,5-a]pyrimidin-5-yl)-1-((((S)-5-oxopyrrolidin-3-yl)oxy)carbonyl)piperazine-2-carboxylic acid]: the IC50 in assay [1] and in assay [3] was above 1500 nM throughout. The “AAK1:GAK pSENs Selectivity” value in assay [2] is recorded as “D (D: 0.16-1.00)”.

In the case of `Cc1cn2ncc(-c3cccnc3OC3CC3)c2nc1N1CCN(C(=O)O[C@H]2CC(=O)N(C)C2)CC1` [Compound I-111, [(3S)-1-methyl-5-oxo-pyrrolidin-3-yl]-4-[3-[2-(cyclopropoxy)-3-pyridyl]-6-methyl-pyrazolo[1,5-a]pyrimidin-5-yl]piperazine-1-carboxylate], the half-maximal inhibitory concentration (IC50) in assay [1] and in assay [3] was above 1500 nM throughout. Also, in assay [2], the “AAK1:GAK pSENs Selectivity” value is listed as “C (C: 0.076-0.15)”.

`COC(=O)N1CC(Oc2ncccc2-c2cnn3ccc(N4CCN(C(=O)O[C@@H]5CC(=O)N(CCOCc6ccccc6)C5)CC4)nc23)C1` [Compound I-84-6, [(3R)-1-(2-benzyloxyethyl)-5-oxo-pyrrolidin-3-yl]-4-[3-[2-(1-methoxycarbonyl-azetidin-3-yl)oxy-3-pyridyl]pyrazolo[1,5-a]pyrimidin-5-yl]piperazine-1-carboxylate]: the IC50 in assay [1] and in assay [3] was above 1500 nM in each case. In addition, the “AAK1:GAK pSENs Selectivity” value in assay [2] is “B (B: 0.016-0.075)”.

For `C[C@@]1(OC(=O)N[C@@H]2CCN(c3ccn4ncc(-c5cccnc5OC5CC5)c4n3)C2)CCNC1` [Compound I-56, (R)-3-methylpyrrolidin-3-yl ((R)-1-(3-(2-cyclopropoxypyridin-3-yl)pyrazolo[1,5-a]pyrimidin-5-yl)pyrrolidin-3-yl)carbamate], the IC50 in assay [1] and in assay [3] was above 1500 nM throughout. In assay [2], the “AAK1:GAK pSENs Selectivity” value is given as “C (C: 0.076-0.15)”.

Take `C[C@H]1CN(c2ccn3ncc(-c4cccnc4OC4CC4)c3n2)CCN1C(=O)O[C@@H]1CNC(=O)C1` [Compound I-40, [(3S)-5-Oxopyrrolidin-3-yl](2S)-4-[3-[2-(cyclopropoxy)-3-pyridyl]pyrazolo[1,5-a]pyrimidin-5-yl]-2-methyl-piperazine-1-carboxylate]: the IC50 in assay [1] and in assay [3] was above 1500 nM each time. In addition, the “AAK1:GAK pSENs Selectivity” value in assay [2] is “B (B: 0.016-0.075)”.

The IC50 is the concentration needed to halve the response being measured. The low end stands for greater potency in that assay, the high end for weaker potency in that assay.
